Assay results reported in ChEMBL document CHEMBL1147236, “Semiplenamides A-G, fatty acid amides from a Papua New Guinea collection of the marine cyanobacterium Lyngbya semiplena” (J Nat Prod, 2003).
pIC50, pKi: −log10 of the molar value.

Assays:
Cannabinoid receptor 1 = Cannabinoid receptor 1 (Rattus norvegicus, UniProt P20272); test: Displacement of [3H]SR141716A from CB1 receptor in CD rat brain membranes; type: cell membranes, Membrane
[1] = Inhibition of AMT in rat RBL-2H3 cells assessed as [14C]anandamide uptake; type: cell-based
[2] = Toxicity in Artemia salina after 24 hrs; type: organism-based; conditions: in vivo, read-out: LD50

Sequence of Cannabinoid receptor 1 (P20272 whole entry): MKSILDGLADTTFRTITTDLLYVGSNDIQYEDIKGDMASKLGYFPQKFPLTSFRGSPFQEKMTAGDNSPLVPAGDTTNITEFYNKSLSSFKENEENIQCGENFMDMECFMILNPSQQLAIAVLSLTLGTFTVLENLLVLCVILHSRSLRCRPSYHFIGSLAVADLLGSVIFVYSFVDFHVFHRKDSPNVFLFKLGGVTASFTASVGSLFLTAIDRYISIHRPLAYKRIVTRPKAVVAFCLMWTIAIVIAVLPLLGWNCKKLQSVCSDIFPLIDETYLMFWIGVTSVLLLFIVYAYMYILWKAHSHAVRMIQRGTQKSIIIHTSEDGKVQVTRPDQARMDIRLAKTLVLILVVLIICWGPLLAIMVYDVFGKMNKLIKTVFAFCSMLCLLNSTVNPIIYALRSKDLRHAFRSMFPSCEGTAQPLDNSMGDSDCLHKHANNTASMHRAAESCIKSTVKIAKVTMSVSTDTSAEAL

CCCCCCCCCCCCC/C=C/CC/C=C(\C)C(=O)NCCO [SEMIPLENAMIDE A]
pKi (Cannabinoid receptor 1): 4.71 | pIC50 [1]: 4.74 | LC50 at 24 h [2]: 1400 nM

CCCCCCCCCCCCC/C=C/CC/C=C(\C)C(=O)NCCOC(C)=O [SEMIPLENAMIDE B]
pKi (Cannabinoid receptor 1): 4.73 | LC50 at 24 h [2]: 2500 nM

CCCCCCCCCCCCC/C=C(\C)C(=O)N[C@@H](C)CO [SEMIPLENAMIDE C]
LC50 at 24 h [2]: 1500 nM

CCCCCCCCCCCCCCCCC/C=C(\C)C(=O)N[C@@H](C)COC(C)=O [SEMIPLENAMIDE D]
LC50 at 24 h [2]: 18000 nM

CCCCCCCCCCCCCCC/C=C(\C)C(=O)N[C@@H](C)COC(C)=O [SEMIPLENAMIDE E]
LC50 at 24 h [2]: 19000 nM

CCCCCCCCCCCCCCC[C@H]1O[C@]1(C)C(=O)NC(C)CO (stereo partly specified) [SEMIPLENAMIDE F]
LC50 at 24 h [2]: 1400 nM

CCCCCCCCCCCCCCC[C@H]1O[C@]1(C)C(=O)NC(C)COC(C)=O (stereo partly specified) [SEMIPLENAMIDE G]
pKi (Cannabinoid receptor 1): 4.75 | LC50 at 24 h [2]: 2400 nM
